Laboratory results taken from patent publication EP0140395A1, “Water soluble derivatives of 1-(2-hydroxyethyl)-2-methyl-5-nitro-imidazole having therapeutical activity, process for its preparation and related pharmaceutical compositions” (Pietro Isnardi & C. Spa, priority 1983, dated 1985).
Values after ≈ are worked out from the molar mass of the structure shown.

How the values were obtained:
[1] = Toxicity (LD50) in the rat; details: in vivo
Text: (§1) The compound of the invention has been pharmacologically tested.
(§2) As regards the toxicity the following results were found: […]

[2] = Kinetic tests in the rat; type: in vivo
[3] = Toxicity (LD50) in the mouse; details: in vivo
Text: as §1, §2

[4] = Solubility of the compound; type: physicochemical
[5] = system: Trichomonas vaginalis; assay: Minimum inhibiting concentration in five strains, in comparison with metronidazole; type: cell-based; details: for MIC: average over five strains of Trichomonas vaginalis, metronidazole as 1 mg/ml solution in dimethyl sulfoxide, compound of the invention as 1 mg/ml water solution
Method: The minimum inhibiting concentration (MIC) was investigated in five strains of Trichomonas vaginalis, in comparison with metronidazole.
Metronidazole was tested in form of a solution in dimethyl sulfoxide at a concentration of 1 mg/ml whereas the compound of the invention was tested in form of a water solution at a concentration of 1 mg/ml.

| SMILES | LD50 ([1]; ip) | LD50 ([1]; po, per os) | conversion into metronidazole ([2]; in the organism and in acidic environment) | dose excreted ([2]; urine, after parenteral administration, read-out: urinary excretion) | LD50 ([3]; ip) | LD50 ([3]; po, per os) | solubility in anhydrous alcohols, acetone and chloroform ([4]; anhydrous alcohols, acetone and chloroform) | solubility in water ([4]; water) | MIC [5] | microbiological activity ([5]; preliminary tests, compared with metronidazole) |
| --- | --- | --- | --- | --- | --- | --- | --- | --- | --- | --- |
| Cc1ncc([N+](=O)[O-])n1CCOC(=O)NCCCCC(N)C(=O)O (centres unmarked) [compound of the invention, N-(5-carboxy-5-aminopentan)-carbamic ester of 1-(2-hydroxyethyl)-2-methyl-5-nitro-imidazole] | 870 mg/kg | 1620 mg/kg | not converted into metronidazole neither in the organism nor in acidic environnment | < 30% | > 4000 mg/kg | > 4000 mg/kg | insoluble | perfectly soluble in water | 2.5 µg/mL (≈ 7.28 µM) | greater microbiological activity |
| Cc1ncc([N+](=O)[O-])n1CCO [metronidazole, 1-(2-hydroxyethyl)-2-methyl-5-nitro-imidazole] |  |  |  |  |  |  |  |  | 5 µg/mL (≈ 29.2 µM) |  |
